One assay concerns the target ATR/ATRIP (Homo sapiens, UniProt Q13535). The assay can be described thus: Inhibition of ATR/ATRIP (unknown origin) using 5-FAM-AK-17 as substrate preincubated with compound for 10 mins followed by ATP addition and measured after 240 mins by mobility shift assay. The assay is classed as protein-complex assay.
The subject of a further assay is OCI-Ly10. The assay can be described thus: Antiproliferative activity against human OCI-Ly10 cells assessed as inhibition of cell growth incubated for 72 hrs by MTS assay. To be noted: OCI-Ly10, 72 h. It is filed as functional, cell-based.
For assay [1], the system named is Granta-519. In words: Induction of apoptosis in human Granta-519 cells assessed as early apoptotic cells at 2000 nM incubated for 48 hrs by Annexin-V-FITC/propidium iodide staining based flow cytometry (reference value: 3.75 %). The assay is classed as functional. (In general: A flow cytometer gives signals particle by particle.)
The subject of assay [2] is Granta-519. In words: Induction of cell cycle arrest in human Granta-519 cells assessed as accumulation of cells at G1 phase at 2000 nM incubated for 24 hrs by propidium iodide staining based flow cytometry (reference value: 45.83 %). The assay is classed as functional.
Assay [3] relates to Granta-519. The assay can be described thus: Induction of apoptosis in human Granta-519 cells assessed as late apoptotic cells at 2000 nM incubated for 48 hrs by Annexin-V-FITC/propidium iodide staining based flow cytometry (reference value: 3.07 %). The assay is classed as functional.
For the next assay, the system named is SUD4. The assay can be described thus: Antiproliferative activity against human SU-DHL-4 cells assessed as inhibition of cell growth incubated for 72 hrs by MTS assay. The assay is classed as functional, cell-based. Conditions: SU-DHL-4, 72 h.
Assay [4] relates to Granta-519. The assay can be described thus: Antiproliferative activity against human Granta-519 cells assessed as inhibition of cell growth incubated for 72 hrs by MTS assay. The assay is classed as functional, cell-based. To be noted: Granta-519, 72 h.
For another assay, the system named is A2780. In words: Antiproliferative activity against human A2780 cells assessed as inhibition of cell growth incubated for 72 hrs by MTS assay. It is filed as functional, cell-based. To be noted: A2780, 72 h. For orientation: Formazan colour is commonly taken as a measure of viable cells.
A further assay deals with DLD-1. The assay can be described thus: Antiproliferative activity against human DLD-1 cells assessed as inhibition of cell growth incubated for 72 hrs by MTS assay. The assay is classed as functional, cell-based. Conditions: DLD-1, 72 h.
Another assay deals with LoVo. The assay can be described thus: Antiproliferative activity against human LoVo cells assessed as inhibition of cell growth incubated for 72 hrs by MTS assay. The assay is classed as functional, cell-based.
Another assay has as its system HCT-116. The assay can be described thus: Antiproliferative activity against human HCT-116 cells assessed as inhibition of cell growth incubated for 72 hrs by MTS assay. The assay is classed as functional, cell-based. To be noted: HCT-116, 72 h.
In assay [5] the test system is Granta-519. In words: Induction of apoptosis in human Granta-519 cells assessed as necrotic cells at 2000 nM incubated for 48 hrs by Annexin-V-FITC/propidium iodide staining based flow cytometry (reference value: 0.429 %). The assay is classed as functional.
The test system of assay [6] is Granta-519. In words: Induction of cell cycle arrest in human Granta-519 cells assessed as accumulation of cells at S phase at 2000 nM incubated for 24 hrs by propidium iodide staining based flow cytometry (reference value: 44.81 %). It is filed as functional.
The next assay has as its system PC-3. In words: Antiproliferative activity against human PC-3 cells assessed as inhibition of cell growth incubated for 72 hrs by MTS assay. The assay is classed as functional, cell-based. To be noted: PC-3, 72 h.
In the next assay the test system is NCI-H446. The assay can be described thus: Antiproliferative activity against human NCI-H446 cells assessed as inhibition of cell growth incubated for 72 hrs by MTS assay. The assay is classed as functional, cell-based. To be noted: NCI-H446, 72 h.
In another assay the test system is HT-29. In words: Antiproliferative activity against human HT-29 cells assessed as inhibition of cell growth incubated for 72 hrs by MTS assay. The assay is classed as functional, cell-based. Conditions: HT-29, 72 h.
Assay [7] has as its system Granta-519. The assay can be described thus: Induction of apoptosis in human Granta-519 cells assessed as viable cells at 2000 nM incubated for 48 hrs by Annexin-V-FITC/propidium iodide staining based flow cytometry (reference value: 92.7 %). The assay is classed as functional. Conditions: read-out: Activity.
The test system of the next assay is CAPAN-1. In words: Antiproliferative activity against human CAPAN-1 cells assessed as inhibition of cell growth incubated for 72 hrs by MTS assay. To be noted: CAPAN-1, 72 h. It is filed as functional, cell-based.

ATR/ATRIP, sequence (Q13535 whole entry): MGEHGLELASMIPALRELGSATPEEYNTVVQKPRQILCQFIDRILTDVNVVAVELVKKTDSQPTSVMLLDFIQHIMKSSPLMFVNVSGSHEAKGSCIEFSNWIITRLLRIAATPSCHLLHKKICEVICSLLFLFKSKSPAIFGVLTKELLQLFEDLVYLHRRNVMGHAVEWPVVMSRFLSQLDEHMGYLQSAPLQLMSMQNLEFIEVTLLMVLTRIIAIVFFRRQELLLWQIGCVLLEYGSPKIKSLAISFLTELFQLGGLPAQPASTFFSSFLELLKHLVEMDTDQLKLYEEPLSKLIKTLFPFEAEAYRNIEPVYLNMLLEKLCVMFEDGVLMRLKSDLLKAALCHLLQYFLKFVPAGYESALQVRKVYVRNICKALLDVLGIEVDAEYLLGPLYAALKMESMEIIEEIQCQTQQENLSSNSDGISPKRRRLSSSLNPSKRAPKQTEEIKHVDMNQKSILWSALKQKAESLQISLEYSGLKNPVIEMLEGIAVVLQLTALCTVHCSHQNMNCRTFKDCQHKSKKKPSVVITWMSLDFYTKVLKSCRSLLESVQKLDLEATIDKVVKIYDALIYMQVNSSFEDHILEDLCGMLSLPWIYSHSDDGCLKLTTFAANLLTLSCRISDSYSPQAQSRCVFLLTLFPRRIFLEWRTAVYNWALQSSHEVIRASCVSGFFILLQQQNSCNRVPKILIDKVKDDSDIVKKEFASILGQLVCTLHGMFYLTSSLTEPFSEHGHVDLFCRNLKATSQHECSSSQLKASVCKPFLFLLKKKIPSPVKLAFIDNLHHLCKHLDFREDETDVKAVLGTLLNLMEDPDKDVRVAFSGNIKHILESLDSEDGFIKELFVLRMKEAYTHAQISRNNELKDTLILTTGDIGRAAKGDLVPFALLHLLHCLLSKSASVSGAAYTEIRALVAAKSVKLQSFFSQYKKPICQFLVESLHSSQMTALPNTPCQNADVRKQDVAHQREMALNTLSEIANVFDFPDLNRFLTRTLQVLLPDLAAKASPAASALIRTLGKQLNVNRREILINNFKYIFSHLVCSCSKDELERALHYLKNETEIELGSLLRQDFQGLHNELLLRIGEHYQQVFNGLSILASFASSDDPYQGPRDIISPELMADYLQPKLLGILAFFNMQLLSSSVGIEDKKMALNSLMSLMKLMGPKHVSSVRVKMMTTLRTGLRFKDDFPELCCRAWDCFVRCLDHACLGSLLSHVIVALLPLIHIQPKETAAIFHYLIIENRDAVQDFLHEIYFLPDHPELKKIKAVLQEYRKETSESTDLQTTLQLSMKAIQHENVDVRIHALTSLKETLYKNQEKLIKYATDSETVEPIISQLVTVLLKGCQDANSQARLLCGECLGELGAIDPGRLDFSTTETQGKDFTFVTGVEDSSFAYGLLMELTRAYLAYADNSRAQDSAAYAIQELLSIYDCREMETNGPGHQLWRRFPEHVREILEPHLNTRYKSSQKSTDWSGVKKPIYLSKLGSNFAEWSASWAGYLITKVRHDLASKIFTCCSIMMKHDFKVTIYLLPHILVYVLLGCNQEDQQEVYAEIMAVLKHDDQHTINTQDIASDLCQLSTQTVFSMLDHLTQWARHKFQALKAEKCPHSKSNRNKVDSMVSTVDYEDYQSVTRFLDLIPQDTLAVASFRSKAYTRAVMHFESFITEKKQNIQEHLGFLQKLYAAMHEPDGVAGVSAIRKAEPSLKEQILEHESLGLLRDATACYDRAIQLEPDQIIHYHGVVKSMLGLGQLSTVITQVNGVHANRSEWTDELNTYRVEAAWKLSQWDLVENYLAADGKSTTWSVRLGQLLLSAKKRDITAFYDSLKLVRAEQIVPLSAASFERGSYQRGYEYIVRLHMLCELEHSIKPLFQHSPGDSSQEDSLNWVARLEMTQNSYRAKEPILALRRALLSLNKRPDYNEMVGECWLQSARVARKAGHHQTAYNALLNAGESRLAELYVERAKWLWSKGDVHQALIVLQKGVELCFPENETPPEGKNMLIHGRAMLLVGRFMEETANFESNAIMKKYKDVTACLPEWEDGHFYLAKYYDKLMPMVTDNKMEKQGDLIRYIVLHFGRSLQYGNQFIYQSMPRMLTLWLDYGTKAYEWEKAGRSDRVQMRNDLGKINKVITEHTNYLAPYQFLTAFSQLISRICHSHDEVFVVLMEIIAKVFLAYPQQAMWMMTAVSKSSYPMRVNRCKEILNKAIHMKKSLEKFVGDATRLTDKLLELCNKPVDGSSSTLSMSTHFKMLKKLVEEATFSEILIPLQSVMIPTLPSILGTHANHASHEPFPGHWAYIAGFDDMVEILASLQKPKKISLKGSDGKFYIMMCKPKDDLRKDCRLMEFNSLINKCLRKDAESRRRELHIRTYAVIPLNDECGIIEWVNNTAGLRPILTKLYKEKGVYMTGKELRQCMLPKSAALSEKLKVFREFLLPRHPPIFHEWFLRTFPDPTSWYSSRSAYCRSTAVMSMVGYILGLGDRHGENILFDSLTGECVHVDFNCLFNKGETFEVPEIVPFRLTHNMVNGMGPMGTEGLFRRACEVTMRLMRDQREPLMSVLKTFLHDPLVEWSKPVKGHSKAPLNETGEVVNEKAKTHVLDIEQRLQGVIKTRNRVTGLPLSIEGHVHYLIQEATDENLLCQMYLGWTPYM
ATR/ATRIP, sequence (Q8WXE1 whole entry, further chain): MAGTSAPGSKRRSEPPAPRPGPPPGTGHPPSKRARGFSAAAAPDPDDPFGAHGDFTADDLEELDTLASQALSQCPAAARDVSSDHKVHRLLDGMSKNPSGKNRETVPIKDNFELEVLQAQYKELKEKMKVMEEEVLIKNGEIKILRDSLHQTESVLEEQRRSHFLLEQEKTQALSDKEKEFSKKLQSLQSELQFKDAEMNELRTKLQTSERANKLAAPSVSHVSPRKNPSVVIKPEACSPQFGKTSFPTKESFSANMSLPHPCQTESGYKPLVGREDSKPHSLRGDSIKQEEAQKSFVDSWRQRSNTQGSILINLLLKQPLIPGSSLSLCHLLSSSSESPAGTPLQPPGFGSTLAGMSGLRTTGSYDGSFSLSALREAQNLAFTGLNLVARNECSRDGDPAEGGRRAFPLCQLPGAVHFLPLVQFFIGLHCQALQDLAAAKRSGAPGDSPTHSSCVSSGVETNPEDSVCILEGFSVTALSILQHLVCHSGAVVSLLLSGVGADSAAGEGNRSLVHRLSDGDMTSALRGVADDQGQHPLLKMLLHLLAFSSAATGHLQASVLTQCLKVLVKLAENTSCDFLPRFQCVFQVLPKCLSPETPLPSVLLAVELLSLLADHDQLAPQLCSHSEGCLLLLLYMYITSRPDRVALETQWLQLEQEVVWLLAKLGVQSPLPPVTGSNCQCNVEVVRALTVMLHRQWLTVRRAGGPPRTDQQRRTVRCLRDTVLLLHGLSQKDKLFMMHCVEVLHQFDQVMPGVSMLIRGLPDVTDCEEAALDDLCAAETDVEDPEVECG

One may read the IC50 as the midpoint of a concentration-inhibition curve. For the compound `CC(C)N(c1cc(N2CCOC[C@H]2C)nc(-c2cccc3[nH]ccc23)n1)S(C)(=O)=O`, the IC50 at ATR/ATRIP is 7.8 nM.
With `C[C@@H]1COCCN1c1nc(-c2ccc3nccn3c2)nc2c1ccn2S(C)(=O)=O`, on ATR/ATRIP, the IC50 was found to be 625 nM.
Turning to `Cc1ccc(S(=O)(=O)n2ccc3c(N4CCOC[C@H]4C)nc(-c4cccc5[nH]ccc45)nc32)cc1`, the IC50 at ATR/ATRIP is 3670 nM.
On the same count and under the same terms, then `C[C@@H]1COCCN1c1nc(-c2cccc3[nH]ccc23)nc2c1ccn2S(=O)(=O)c1cccs1`, with 84.9 nM; and `C[C@@H]1COCCN1c1nc(-c2cccc3occc23)nc2c1ccn2S(C)(=O)=O`, with 684 nM; and `C[C@@H]1COCCN1c1cc(N(C2CC2)S(C)(=O)=O)nc(-c2cccc3[nH]ccc23)n1`, with 3.3 nM.
On to `C[C@@H]1COCCN1c1cc(C2CCCCS2(=O)=O)nc(-c2cccc3[nH]ccc23)n1` (stereo partly drawn), for which the IC50 on ATR/ATRIP came out at 7.8 nM.
Still for that read-out and setting: under `C[C@@H]1COCCN1c1nc(-c2cc(Cl)cc3[nH]ccc23)nc2c1ccn2S(C)(=O)=O` stands 4.4 nM; under `C[C@@H]1COCCN1c1nc(-c2cnc3ccccc3c2)nc2c1ccn2S(C)(=O)=O`, 630 nM; under `C[C@@H]1COCCN1c1nc(-c2cc(C#N)cc3[nH]ccc23)nc2c1ccn2S(C)(=O)=O`, 9.4 nM.
Regarding `C[C@@H]1COCCN1c1cc(N2CCCS2(=O)=O)nc(-c2cccc3[nH]ccc23)n1`, the IC50 on ATR/ATRIP came out at 43.5 nM.
On the same count and under the same terms, under `C[C@@H]1COCCN1c1nc(-c2cccc3[nH]ccc23)nc2c1ccn2S(C)(=O)=O` stands 2.3 nM.
Same read-out and setting: then `C[C@@H]1COCCN1c1nc(-c2ccc3[nH]cnc3c2)nc2c1ccn2S(C)(=O)=O`, with 245 nM.
On to `C[C@@H]1COCCN1c1cc(C2(S(C)(=O)=O)CC2)nc(-c2cccc3[nH]ccc23)n1`, for which the half-inhibitory concentration (IC50) in the assay on OCI-Ly10 was 1030 nM; in the assay with SUD4, 2380 nM; in the assay on Granta-519 [4] it was 500 nM; in the assay with A2780, 460 nM; in the assay on DLD-1, 3470 nM; with LoVo, 850 nM. For the same compound, the IC50 with HCT-116 was 1470 nM; in the assay on PC-3 it was 8430 nM; in the assay on NCI-H446 it was 3900 nM; with HT-29, 2940 nM; in the assay on CAPAN-1, 7050 nM. The Activity in the assay on Granta-519 [1] stood at 9.18%; in the assay with Granta-519 [2], 35.65%; in the assay with Granta-519 [3], 9.46%; with Granta-519 [5], 0.742%; with Granta-519 [6], 61.62%. Besides, in the assay with Granta-519 [7], the viability at 2 µM was 80.6%.
Take `C[C@@H]1COCCN1c1nc(-c2cccc3[nH]ccc23)nc2c1CS(=O)(=O)C2`: the IC50 at ATR/ATRIP turned out to be 32.1 nM.
Same read-out and setting: under `COc1cc(-c2nc(N3CCOC[C@H]3C)c3ccn(S(C)(=O)=O)c3n2)c2cc[nH]c2c1` stands 5.3 nM; under `C[C@@H]1COCCN1c1nc(-c2cc(C(F)(F)F)cc3[nH]ccc23)nc2c1ccn2S(C)(=O)=O`, 9.2 nM; under `C[C@@H]1COCCN1c1nc(-c2cccc3[nH]ccc23)nc2c1cnn2S(C)(=O)=O`, 5.8 nM.
Same read-out and setting: then `C[C@@H]1COCCN1c1nc(-c2cccc3sccc23)nc2c1ccn2S(C)(=O)=O`, with 28 nM.
Same read-out and setting: then `CC(C)S(=O)(=O)n1ccc2c(N3CCOC[C@H]3C)nc(-c3cccc4[nH]ccc34)nc21`, with 8 nM; and `C[C@@H]1COCCN1c1nc(-c2cncc3ccccc23)nc2c1ccn2S(C)(=O)=O`, with 46.9 nM.
For `C[C@@H]1COCCN1c1nc(-c2cccc3[nH]ccc23)nc2c1ccn2S(=O)(=O)C1CCCCC1`, the IC50 at ATR/ATRIP worked out at 205 nM.
The same measure, in the same setting: under `C[C@@H]1COCCN1c1cc(C2CCCS2(=O)=O)nc(-c2cccc3[nH]ccc23)n1` (stereo partly drawn) stands 9.4 nM; under `C[C@@H]1COCCN1c1nc(-c2ccc3[nH]ccc3c2)nc2c1ccn2S(C)(=O)=O`, 53.1 nM; under `CCS(=O)(=O)n1ccc2c(N3CCOC[C@H]3C)nc(-c3cccc4[nH]ccc34)nc21`, 4.3 nM.
On the same count and under the same terms, under `C[C@@H]1COCCN1c1cc(C2(S(=O)(=O)N(C)C)CC2)nc(-c2cccc3[nH]ccc23)n1` stands 746 nM; under `C[C@@H]1COCCN1c1nc(-c2ccnc3cccnc23)nc2c1ccn2S(C)(=O)=O`, 3690 nM.
On the same count and under the same terms, then `C[C@@H]1COCCN1c1nc(-c2cccc3[nH]ccc23)nc2c1ccn2S(=O)(=O)N(C)C`, with 5.3 nM; and `C[C@@H]1COCCN1c1nc(-c2cccc3ccccc23)nc2c1ccn2S(C)(=O)=O`, with 39.5 nM; and `C[C@@H]1COCCN1c1nc(-c2cccc3[nH]ccc23)nc2c1ccn2S(=O)(=O)c1ccccc1`, with 270 nM.
With `C[C@@H]1COCCN1c1nc(-c2cccc3[nH]ccc23)nc2c1ccn2S(=O)(=O)C1CC1`, the IC50 at ATR/ATRIP came to 3.8 nM.
For the compound `C[C@@H]1COCCN1c1nc(-c2cccc3[nH]ccc23)nc2c1ccn2S(=O)(=O)c1ccc(-c2ccccc2)cc1`, the IC50 on ATR/ATRIP was 10200 nM.

Source of the values: ChEMBL document CHEMBL5523766 (J Med Chem, 2024).
